Measurements as given in patent publication US9550772B2, “Azaindole derivatives as multi kinase inhibitors” (ORIBASE PHARMA, priority 2012, dated 2017).
Read-outs that look alike come from different tables or passages of the source.

How the values were obtained:
SRC = target: T1, SRC (Homo sapiens, UniProt P12931); test: In vitro kinase assay (Z'-LYTE, Invitrogen); type: biochemical; settings: compound at 100 nM, ATP Km apparent, read-out: % of inhibition of the kinase compared to the control
T1 construct: purchased Invitrogen
Method: (§1) The inhibitory activity of the compounds on 7 kinases (BRAF, EGFR (ErbB1), EGFR (ErbB1) T790M L858R, FGFR2, KDR (VEGFR2), PDGFRA (PDGFR alpha), SRC) was evaluated by Invitrogen using the Z′-LYTE® technology. Briefly, the Z′-LYTE® biochemical assay employs a fluorescence-based, coupled-enzyme format and is based on the differential sensitivity of phosphorylated and non-phosphorylated peptides to proteolytic cleavage. The peptide substrate is labeled with two fluorophores—one at each end—that make up a FRET pair. A ratiometric method, which calculates the ratio (the Emission Ratio) of donor emission to acceptor emission after excitation of the donor fluorophore at 400 nm, is used to quantitate reaction progress.
(§2) The compounds are screened in 1% DMSO (final) in the well. For 10 point titrations, 3-fold serial dilutions are conducted from the starting concentration. All Peptide/Kinase Mixtures are diluted to a 2× working concentration in the appropriate Kinase Buffer. All ATP Solutions are diluted to a 4× working concentration in Kinase Buffer (50 mM HEPES pH 7.5, 0.01% BRIJ-35, 10 mM MgCl2, 1 mM EGTA). ATP Km apparent is previously determined using a Z′-LYTE® assay.
(§3) Each compound was incubated at a concentration of 100 nM and the tables 21 to 27 summarize the results obtained showing the inhibitory power of a compound.

PDGFRA (PDGFR alpha) = target: T2, PDGFRA (PDGFR alpha) (Homo sapiens, UniProt P16234); test: In vitro kinase assay (Z'-LYTE, Invitrogen); type: biochemical; settings: compound at 100 nM, ATP Km apparent, read-out: % of inhibition of the kinase compared to the control
T2 construct: purchased Invitrogen
Method: as §1, §2, §3

KDR (VEGFR2) = target: T3, KDR (VEGFR2) (Homo sapiens, UniProt P35968); test: In vitro kinase assay (Z'-LYTE, Invitrogen); type: biochemical; settings: compound at 100 nM, ATP Km apparent, read-out: % of inhibition of the kinase compared to the control
T3 construct: purchased Invitrogen
Method: as §1, §2, §3

BRAF = target: T4, BRAF (Homo sapiens, UniProt P15056); test: In vitro kinase assay (Z'-LYTE, Invitrogen); type: biochemical; settings: compound at 100 nM, ATP Km apparent, read-out: % of inhibition of the kinase compared to the control
T4 construct: purchased Invitrogen
Method: as §1, §2, §3

EGFR (ErbB1) = target: T5, EGFR (ErbB1) (Homo sapiens, UniProt P00533); test: In vitro kinase assay (Z'-LYTE, Invitrogen); type: biochemical; settings: compound at 100 nM, ATP Km apparent, read-out: % of inhibition of the kinase compared to the control
T5 construct: purchased Invitrogen
Method: as §1, §2, §3

FGFR2 = target: T6, FGFR2 (Homo sapiens, UniProt P21802); test: In vitro kinase assay (Z'-LYTE, Invitrogen); type: biochemical; settings: compound at 100 nM, ATP Km apparent, read-out: % of inhibition of the kinase compared to the control
T6 construct: purchased Invitrogen
Method: as §1, §2, §3

EGFR (ErbB1) T790M L858R = target: T7, EGFR (ErbB1) T790M L858R (Homo sapiens, UniProt P00533, L858R/T790M); test: In vitro kinase assay (Z'-LYTE, Invitrogen); type: biochemical; settings: compound at 100 nM, ATP Km apparent, read-out: % of inhibition of the kinase compared to the control
T7 construct: purchased Invitrogen
Method: as §1, §2, §3

MDA-MB-231 cell line = test: In vitro cell proliferation assay (MTT); type: cell-based; settings: Homo sapiens, MDA-MB-231, 72 hr, read-out: EC50, anti-proliferative activity
Method: (§4) Cancer cell lines (5×10^3 cells per well) or HUVEC (1×10^4 cells per well) or HRMEC (1×10^4 cells per well) were distributed in 96-well plates and incubating in duplicate with escalating concentrations (10 nM to 3 μM) of compounds for 72 hr. Cell proliferation was measured using MTT (3[4,5-dimethylthiazol-2-yl]-2,5-diphenyltetrazolium bromide). The EC50 values were calculated from sigmoidal dose-response curves utilizing Prism 5.0 from Graph-Pad Software (GraphPad Software, La Jolla, Calif., USA), with values normalized to those of DMSO-treated control wells (0%) and 1% SDS control wells (100%).

HeLa cell line = test: In vitro cell proliferation assay (MTT); type: cell-based; settings: Homo sapiens, 72 hr, read-out: EC50, anti-proliferative activity
Method: as §4

HepG2 cell line = test: In vitro cell proliferation assay (MTT); type: cell-based; settings: Homo sapiens, HepG2, 72 hr, read-out: EC50, anti-proliferative activity
Method: as §4

HUVEC cells = test: In vitro cell proliferation assay (MTT); type: cell-based; settings: Homo sapiens, 72 hr, read-out: EC50, anti-proliferative activity
Method: as §4

A549 cell line = test: In vitro cell proliferation assay (MTT); type: cell-based; settings: Homo sapiens, A549, 72 h, read-out: EC50, anti-proliferative activity
Method: as §4

HuCCT1 cell line = test: In vitro cell proliferation assay (MTT); type: cell-based; settings: Homo sapiens, HuCCT-1, HuCCT1, 72 hr, EC50 ≧ 1 μM, read-out: EC50, anti-proliferative activity
Method: as §4

T5 sequence (P00533 25-1210): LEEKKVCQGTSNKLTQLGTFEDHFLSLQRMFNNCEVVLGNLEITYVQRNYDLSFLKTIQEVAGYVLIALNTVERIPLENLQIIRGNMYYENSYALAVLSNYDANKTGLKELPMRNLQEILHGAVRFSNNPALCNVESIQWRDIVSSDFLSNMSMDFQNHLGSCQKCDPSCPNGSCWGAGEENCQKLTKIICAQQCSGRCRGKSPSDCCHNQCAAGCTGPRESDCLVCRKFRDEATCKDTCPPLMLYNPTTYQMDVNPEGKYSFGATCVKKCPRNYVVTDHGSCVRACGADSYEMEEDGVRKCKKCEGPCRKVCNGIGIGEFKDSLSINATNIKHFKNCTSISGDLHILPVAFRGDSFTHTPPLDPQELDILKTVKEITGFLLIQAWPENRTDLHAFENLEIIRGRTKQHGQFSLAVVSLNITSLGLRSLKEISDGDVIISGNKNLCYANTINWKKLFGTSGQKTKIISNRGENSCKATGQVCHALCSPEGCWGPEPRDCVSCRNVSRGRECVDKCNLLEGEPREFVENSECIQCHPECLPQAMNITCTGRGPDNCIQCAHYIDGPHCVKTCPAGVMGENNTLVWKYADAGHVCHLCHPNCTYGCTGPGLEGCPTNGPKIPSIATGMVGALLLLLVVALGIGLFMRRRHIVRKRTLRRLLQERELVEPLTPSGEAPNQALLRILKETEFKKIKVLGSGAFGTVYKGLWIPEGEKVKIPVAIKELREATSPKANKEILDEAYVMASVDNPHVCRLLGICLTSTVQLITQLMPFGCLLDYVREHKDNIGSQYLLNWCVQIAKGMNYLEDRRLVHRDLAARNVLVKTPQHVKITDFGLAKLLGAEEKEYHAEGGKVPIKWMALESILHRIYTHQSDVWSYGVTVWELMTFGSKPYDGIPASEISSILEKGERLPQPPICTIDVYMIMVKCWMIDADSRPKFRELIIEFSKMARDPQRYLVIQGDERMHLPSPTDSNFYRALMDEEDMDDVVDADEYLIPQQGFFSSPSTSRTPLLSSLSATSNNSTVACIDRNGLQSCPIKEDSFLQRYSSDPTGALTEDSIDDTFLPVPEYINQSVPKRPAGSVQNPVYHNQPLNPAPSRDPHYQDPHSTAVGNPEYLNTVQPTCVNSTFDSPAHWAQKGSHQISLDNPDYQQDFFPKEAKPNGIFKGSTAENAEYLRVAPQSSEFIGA
T4 sequence (P15056 whole entry): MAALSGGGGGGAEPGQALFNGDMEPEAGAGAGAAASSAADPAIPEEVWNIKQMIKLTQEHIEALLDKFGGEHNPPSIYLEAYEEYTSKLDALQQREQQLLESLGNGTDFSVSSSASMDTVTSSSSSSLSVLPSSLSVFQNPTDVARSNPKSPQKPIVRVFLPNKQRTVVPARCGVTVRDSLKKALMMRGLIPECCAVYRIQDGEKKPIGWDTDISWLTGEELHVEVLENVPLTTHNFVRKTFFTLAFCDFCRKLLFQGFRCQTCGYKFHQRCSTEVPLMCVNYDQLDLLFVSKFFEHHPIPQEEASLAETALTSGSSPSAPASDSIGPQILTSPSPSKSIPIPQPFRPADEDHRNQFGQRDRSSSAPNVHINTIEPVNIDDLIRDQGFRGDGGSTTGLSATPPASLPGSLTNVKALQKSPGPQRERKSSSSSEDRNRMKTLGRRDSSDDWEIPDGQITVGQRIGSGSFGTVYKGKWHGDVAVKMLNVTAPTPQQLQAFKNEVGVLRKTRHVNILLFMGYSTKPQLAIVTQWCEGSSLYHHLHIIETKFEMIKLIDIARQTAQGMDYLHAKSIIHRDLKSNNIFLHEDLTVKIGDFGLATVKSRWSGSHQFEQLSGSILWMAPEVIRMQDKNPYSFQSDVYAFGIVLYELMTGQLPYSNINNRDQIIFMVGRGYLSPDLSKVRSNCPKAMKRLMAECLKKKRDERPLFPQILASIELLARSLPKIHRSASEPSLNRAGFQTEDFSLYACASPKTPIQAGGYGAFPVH
T1 sequence (P12931 whole entry): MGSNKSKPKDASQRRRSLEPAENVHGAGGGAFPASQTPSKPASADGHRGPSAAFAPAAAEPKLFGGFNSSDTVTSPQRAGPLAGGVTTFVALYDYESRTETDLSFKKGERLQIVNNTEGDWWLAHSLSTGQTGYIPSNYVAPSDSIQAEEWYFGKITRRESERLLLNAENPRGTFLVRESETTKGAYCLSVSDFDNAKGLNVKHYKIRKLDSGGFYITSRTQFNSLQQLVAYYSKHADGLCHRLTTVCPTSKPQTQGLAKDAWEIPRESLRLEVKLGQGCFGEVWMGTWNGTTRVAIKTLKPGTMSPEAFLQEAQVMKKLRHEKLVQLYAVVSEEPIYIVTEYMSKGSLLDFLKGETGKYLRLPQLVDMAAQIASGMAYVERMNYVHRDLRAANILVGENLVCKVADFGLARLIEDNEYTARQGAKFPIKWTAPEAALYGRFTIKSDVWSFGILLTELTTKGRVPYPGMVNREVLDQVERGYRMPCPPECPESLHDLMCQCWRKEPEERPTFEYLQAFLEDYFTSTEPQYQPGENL
T3 sequence (P35968 20-1356): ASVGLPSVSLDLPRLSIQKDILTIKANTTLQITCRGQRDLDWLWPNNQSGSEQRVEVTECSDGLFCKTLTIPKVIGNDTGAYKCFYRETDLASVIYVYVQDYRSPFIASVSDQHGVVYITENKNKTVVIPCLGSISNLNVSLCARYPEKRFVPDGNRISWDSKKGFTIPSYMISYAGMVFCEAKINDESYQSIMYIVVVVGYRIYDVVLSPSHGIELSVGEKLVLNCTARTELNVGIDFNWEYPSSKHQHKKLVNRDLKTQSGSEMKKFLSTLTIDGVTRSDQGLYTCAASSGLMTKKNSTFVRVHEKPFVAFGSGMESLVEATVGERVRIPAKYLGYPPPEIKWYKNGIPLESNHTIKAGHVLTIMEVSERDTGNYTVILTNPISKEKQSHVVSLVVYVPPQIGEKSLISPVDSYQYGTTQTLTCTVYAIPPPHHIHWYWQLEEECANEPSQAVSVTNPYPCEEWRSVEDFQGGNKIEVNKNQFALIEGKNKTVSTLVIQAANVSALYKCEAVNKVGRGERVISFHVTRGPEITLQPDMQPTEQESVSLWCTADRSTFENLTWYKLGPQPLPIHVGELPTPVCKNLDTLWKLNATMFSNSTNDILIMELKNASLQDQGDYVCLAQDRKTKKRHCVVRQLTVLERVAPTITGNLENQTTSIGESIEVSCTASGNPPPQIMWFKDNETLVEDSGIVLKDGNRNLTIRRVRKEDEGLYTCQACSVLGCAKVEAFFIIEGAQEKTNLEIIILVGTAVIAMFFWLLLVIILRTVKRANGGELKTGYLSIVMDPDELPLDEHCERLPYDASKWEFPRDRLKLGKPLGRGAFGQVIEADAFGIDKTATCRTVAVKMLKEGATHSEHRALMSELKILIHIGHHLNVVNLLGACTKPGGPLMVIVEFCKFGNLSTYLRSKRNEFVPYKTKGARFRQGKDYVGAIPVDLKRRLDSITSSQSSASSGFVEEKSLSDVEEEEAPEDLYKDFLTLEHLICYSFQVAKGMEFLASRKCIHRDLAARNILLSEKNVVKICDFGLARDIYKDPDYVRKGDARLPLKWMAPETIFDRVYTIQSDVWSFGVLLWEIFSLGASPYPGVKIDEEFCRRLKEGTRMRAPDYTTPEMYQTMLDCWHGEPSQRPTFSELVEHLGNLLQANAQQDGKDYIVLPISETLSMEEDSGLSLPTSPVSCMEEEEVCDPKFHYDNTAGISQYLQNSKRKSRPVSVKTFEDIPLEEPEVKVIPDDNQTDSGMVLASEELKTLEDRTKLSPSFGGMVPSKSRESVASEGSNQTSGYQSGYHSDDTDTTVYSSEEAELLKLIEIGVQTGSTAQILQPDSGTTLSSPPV
T2 sequence (P16234 24-1089): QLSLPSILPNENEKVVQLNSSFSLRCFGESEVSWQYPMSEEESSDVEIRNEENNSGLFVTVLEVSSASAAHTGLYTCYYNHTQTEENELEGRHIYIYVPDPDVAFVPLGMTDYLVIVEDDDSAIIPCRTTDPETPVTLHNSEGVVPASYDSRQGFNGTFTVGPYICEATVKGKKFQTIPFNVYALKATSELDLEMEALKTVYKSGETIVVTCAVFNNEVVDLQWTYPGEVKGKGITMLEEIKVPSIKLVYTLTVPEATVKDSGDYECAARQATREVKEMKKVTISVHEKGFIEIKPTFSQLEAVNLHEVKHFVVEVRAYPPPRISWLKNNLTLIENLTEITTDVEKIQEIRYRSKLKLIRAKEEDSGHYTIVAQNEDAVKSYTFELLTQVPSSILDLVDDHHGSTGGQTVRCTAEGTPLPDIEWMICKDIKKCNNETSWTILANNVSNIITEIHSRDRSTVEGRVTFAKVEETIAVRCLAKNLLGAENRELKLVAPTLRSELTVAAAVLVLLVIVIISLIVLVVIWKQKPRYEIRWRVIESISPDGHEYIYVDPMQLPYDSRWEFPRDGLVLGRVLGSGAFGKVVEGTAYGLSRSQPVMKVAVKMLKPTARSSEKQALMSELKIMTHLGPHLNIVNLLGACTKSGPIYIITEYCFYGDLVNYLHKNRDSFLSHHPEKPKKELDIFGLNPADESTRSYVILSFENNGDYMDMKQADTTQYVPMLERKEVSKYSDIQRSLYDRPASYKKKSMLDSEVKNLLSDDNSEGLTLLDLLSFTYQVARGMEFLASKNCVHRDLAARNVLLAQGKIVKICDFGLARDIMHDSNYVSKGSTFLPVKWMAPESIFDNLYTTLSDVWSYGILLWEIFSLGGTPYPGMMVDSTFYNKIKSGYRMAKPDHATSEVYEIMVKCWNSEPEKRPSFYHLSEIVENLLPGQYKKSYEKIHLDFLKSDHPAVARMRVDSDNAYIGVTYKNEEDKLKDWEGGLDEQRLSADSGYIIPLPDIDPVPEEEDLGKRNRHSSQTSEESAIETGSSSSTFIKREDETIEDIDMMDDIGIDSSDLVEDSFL

SMILES | inhibition at 0.1 µM (SRC) [%] | inhibition at 0.1 µM (PDGFRA (PDGFR alpha)) [%] | inhibition at 0.1 µM (KDR (VEGFR2)) [%] | inhibition at 0.1 µM (BRAF) [%] | inhibition at 0.1 µM (EGFR (ErbB1)) [%] | inhibition at 0.1 µM (FGFR2) [%] | inhibition at 0.1 µM (EGFR (ErbB1) T790M L858R) [%] | EC50 (MDA-MB-231 cell line; 100 nM < EC50 < 1 μM) [µM] | EC50 (HeLa cell line; 100 nM < EC50 < 1 μM) [µM] | EC50 (HepG2 cell line; 100 nM < EC50 < 1 μM) [µM] | EC50 (HUVEC cells; EC50 ≧ 1 μM) [µM] | EC50 (A549 cell line; 100 nM < EC50 < 1 μM) [µM] | EC50 (MDA-MB-231 cell line; EC50 ≧ 1 μM) [µM] | EC50 (HeLa cell line; EC50 ≧ 1 μM) [µM] | EC50 (HepG2 cell line; EC50 ≧ 1 μM) [µM] | EC50 (A549 cell line; EC50 ≧ 1 μM) [µM] | EC50 (HUVEC cells; 100 nM < EC50 < 1 μM) [µM] | EC50 (HuCCT1 cell line) [µM]
CC(=O)c1cc2cc(C(=O)Nc3cc(NC(=O)c4ccc(CN5CCN(C)CC5)c(C(F)(F)F)c4)ccc3C)cnc2[nH]1 [OR0724, 2-Acetyl-1H-pyrrolo[2,3-b]pyridine-5-carboxylic acid {2-methyl-5-[4-(4-methyl-piperazin-1-ylmethyl)-3-trifluoromethyl-benzoylamino]-phenyl}-amide] | < 50 | < 50 | < 50 | < 50 | ≥ 50 | < 50 | ≥ 50 |  |  |  |  |  |  |  |  |  |  | 
CC(=O)c1cc2cc(CCc3cc(NC(=O)c4cc(N5CCN(C)CC5)cc(C(F)(F)F)c4)ccc3C)cnc2[nH]1 [OR1059, N-{3-[2-(2-Acetyl-1H-pyrrolo[2,3-b]pyridin-5-yl)-ethyl]-4-methyl-phenyl}-3-(4-methyl-piperazin-1-yl)-5-trifluoromethyl-benzamide] | ≥ 50 | ≥ 50 | ≥ 50 | ≥ 50 | ≥ 50 | ≥ 50 |  | 0.1 to 1 | 0.1 to 1 | 0.1 to 1 | ≥ 1 | 0.1 to 1 |  |  |  |  |  | 
COC(=O)c1cc2cc(C=Nc3cc(NC(=O)c4ccc(CN5CCN(C)CC5)c(C(F)(F)F)c4)ccc3C)cnc2[nH]1 [OR1070, 5-({2-Methyl-5-[4-(4-methyl-piperazin-1-ylmethyl)-3-trifluoromethyl-benzoylamino]-phenylimino}-methyl)-1H-pyrrolo[2,3-b]pyridine-2-carboxylic acid methyl ester] | ≥ 50 | ≥ 50 | ≥ 50 | < 50 | ≥ 50 | ≥ 50 |  |  |  |  | ≥ 1 |  | ≥ 1 | ≥ 1 | ≥ 1 | ≥ 1 |  | 
COC(=O)c1cc2cc(CCc3ccc(C)c(NC(=O)c4cc(-n5cnc(C)c5)cc(C(F)(F)F)c4)c3)cnc2[nH]1 [OR1068, 5-(2-{4-Methyl-3-[3-(4-methyl-imidazol-1-yl)-5-trifluoromethyl-benzoylamino]-phenyl}-ethyl)-1H-pyrrolo[2,3-b]pyridine-2-carboxylic acid methyl ester] | ≥ 50 | ≥ 50 | ≥ 50 | < 50 | ≥ 50 | ≥ 50 |  |  |  |  |  |  | ≥ 1 | ≥ 1 | ≥ 1 | ≥ 1 | 0.1 to 1 | 
Cc1nc(Nc2ncc(C(=O)Nc3c(C)cccc3Cl)s2)cc(N2CCN(CCO)CC2)n1 [Dasatinib, reference compound] |  |  |  |  |  |  |  |  |  |  | ≥ 1 |  |  |  | ≥ 1 |  |  | ≥ 1
CC(=O)c1cc2cc(CCc3cc(NC(=O)Cc4cccc(C(F)(F)F)c4)ccc3C)cnc2[nH]1 [OR0966, N-{3-[2-(2-Acetyl-1H-pyrrolo[2,3-b]pyridin-5-yl)-ethyl]-4-methyl-phenyl}-2-(3-trifluoromethyl-phenyl)-acetamide] | < 50 | < 50 | < 50 | ≥ 50 | < 50 | < 50 |  |  |  | 0.1 to 1 | ≥ 1 |  | ≥ 1 | ≥ 1 |  | ≥ 1 |  | 
COC(=O)c1cc2cc(CCc3cccc(NC(=S)Cc4cccc(C(F)(F)F)c4)c3)cnc2[nH]1 [OR1014, 5-(2-{3-[2-(3-Trifluoromethyl-phenyl)-thioacetylamino]-phenyl}-ethyl)-1H-pyrrolo[2,3-b]pyridine-2-carboxylic acid methyl ester] | < 50 | < 50 | < 50 | < 50 | < 50 | < 50 |  |  |  |  |  |  | ≥ 1 | ≥ 1 | ≥ 1 | ≥ 1 | 0.1 to 1 | 
